Experiments:
hemolytic toxins = details: in the presence of 10 mM D-lactulose; cited from earlier work
[1] = test system: Chironex fleckeri (the Australian box jellyfish) venom; assay: Survival time following lethal doses of venom in mice; format: in vivo
[2] = test system: human washed red blood cells (RBC, 2%) subjected to Alatina moseri venom; assay: Venom-induced hemolysis of washed RBC, 96-well plate, plasma hemoglobin read spectrophotometrically; format: cell-based; details: 1 hour at 37° C., FIG. 1
Description: Using a 96-well plate, human washed red blood cells (RBC, 2%) were subjected to Alatina moseri venom (6.4 U/mL/%). And treated simultaneously with a dose of zinc gluconate administered to a final concentration of from 0 to 25 mM zinc gluconate in combination with a dose of copper gluconate administered to a final concentration of from 0 to 128 μM. At the end of the incubation period, the 96 well plate was centrifuged briefly at 4° C. to pellet red blood cells from plasma. Plasma hemoglobin levels were then determined spectrophotometrically.

With `OC[C@H]1O[C@@H](O[C@@H]2[C@@H](CO)O[C@](O)(CO)[C@H]2O)[C@H](O)[C@@H](O)[C@H]1O` [D-lactulose] as the molecule, how does the hemolysis (hemolytic toxins) read?
Its hemolysis is “dramatic absence of hemolysis”.

For Zinc, which survival time [1] is on record?
Its survival time is “increase survival time”.

With copper gluconate as the molecule, how does the “inhibition of venom-induced hemolysis” value ([2]; copper gluconate (0 to 128 μM) with between 0 mM and 12.5 mM zinc gluconate) read?
Its value is “substantially increased the baseline inhibition”.

What about the “hemolysis after exposure to venom” value ([2]; up to 128 μM copper gluconate added to 25 mM zinc gluconate) of the same molecule?
Its value is “practically eliminated hemolysis”.

For zinc gluconate, which “inhibition of venom-induced hemolysis” value ([2]; zinc gluconate alone (baseline), 2% RBC, Alatina moseri venom 6.4 U/mL/%) is on record?
The value was “baseline inhibition of venom-induced hemolysis”.

Source: patent US20140248374A1, “COMPOSITIONS AND MULTI-STEP METHODS OF USING THE SAME FOR THE TREATMENT OF JELLYFISH STINGS” (UNIVERSITY OF HAWAII, priority 2011, published 2014)
